Calls of active or inactive are those of the source. No cut-off for these calls is given here.

By logP is commonly meant a log measure of how a compound divides between an organic and an aqueous phase. The low end stands for lower lipophilicity, the high end for higher lipophilicity.

Series [1] concerns Mus musculus. The experiment in a line: Toxicity in mouse allografted with mouse L1210 cells at 25 to 400 mg/kg, ip. It counts as organism-based. Particulars: in vivo. The arrangement: dose 25-400 mg/kg, route intraperitoneal.
Series [2] in a line: Octanol-water partition coefficient, log P of the compound. It is filed as physicochemical.
The test system of series [3] is L1210. The experiment in a line: Antitumor activity against mouse L1210 cells allografted in mouse assessed as tumor growth inhibition at 400 mg/kg, ip. It is filed as functional, organism-based. The arrangement: dose 400 mg/kg.
Series [4] deals with Mus musculus. The experiment in a line: Toxicity in mouse allografted with mouse L1210 cells at 200 mg/kg, ip. Particulars: in vivo. The arrangement: dose 200 mg/kg, route intraperitoneal. It is filed as organism-based.

In the case of `CC(=O)Nc1ncc2ccccc2c1-c1ccc(NC(=O)CN(CCCl)CCCl)cc1`, the Activity entry in series [1] is listed as “Non-toxic”. In series [2], this molecule registered a lipophilicity (logP) of 3.87. In addition, the TGI entry in series [3] is “inactive”.

For the molecule `CC(=O)Nc1ncc2ccccc2c1-c1ccc(NC(=O)CCN(CCCl)CCCl)cc1`, in series [1], the Activity entry is “Non-toxic”. In addition, in series [3], the TGI result is “inactive”.

Regarding `CC(=O)Nc1ncc2ccccc2c1-c1ccc(N(CCCl)CCCl)cc1`, the Activity entry in series [1] is on record as “Non-toxic”. In series [3], the TGI result is “inactive”.

As to `Nc1ncc2ccccc2c1-c1ccc(NC(=O)CN(CCCl)CCCl)cc1`, in series [1], the Activity result was “Non-toxic”. The TGI entry in series [3] was “inactive”.

For `Nc1ccc(-c2c(N)ncc3ccccc23)cc1`, the log partition coefficient (logP) in series [2] turned out to be 2.58.

In the case of `CC(=O)Nc1nc(Br)c2ccccc2c1-c1ccc(N(CCCl)CCCl)cc1.Cl`, the Activity entry in series [1] is listed as “Non-toxic”. For the same molecule, the TGI result in series [3] was “inactive”.

With `CCNc1ncc2ccccc2c1-c1ccc(NC(=O)CCN(CCCl)CCCl)cc1.Cl`, the logP in series [2] turned out to be 7.43. The Activity entry in series [4] was “Toxic”. The TGI result in series [3] was “inactive”.
